# Data from patent US11083732B2, “Use of negative modulators of GABA receptors containing alpha5 subunits as fast acting antidepressants” (University of Maryland, Baltimore, priority 2014, dated 2021).
# “Also recorded” adds a separate entry of the source.
# What was measured:
# [1] = test system: rats subjected to chronic restraint stress; assay: Sucrose preference test (SPT) after chronic restraint stress (CRS); assay type: in vivo, rat; settings: 10 days CRS; L-655,708 0.7 mg/kg i.p.; 24 hrs post-injection; vs pre-stress baseline
# Text: MRK-016 rapidly reverses loss of sucrose preference and social interaction behaviors after chronic restraint stress (FIG. 9). […] This persisted for 7 days despite further stress exposure. and in the same animals after an additional week of CRS and 7 days after the injection of MRK-016.
# Chronic restraint stress (CRS). Male Sprague Dawley rats (4-5 weeks-old; Harlan Laboratories) were placed in appropriately sized restraint tubes, highly restricting their movement for periods of four hours in a brightly lit lab, every day for ten days during the light phase of their diurnal cycle (Lim et al., 2012).
# (§1) Sucrose preference test (SPT). Rats were given a choice between two bottles containing tap water or a 1% sucrose solution (Rygula et al., 2006). Testing was conducted overnight (16 hours), including the full duration of their dark phase. Animals were first trained with both bottles while group-housed. For subsequent tests, including during the baseline period, animals were individually housed. Sucrose preference was calculated as amount of the sucrose solution consumed as a percentage of the total amount of liquid consumed.
# Drugs/stats. L-655,708 was purchased from Tocris Bioscience (R&D Systems, Minneapolis, Minn.) and prepared at a concentration of 5 mM in 75% saline/25% DMSO. […] This dose is sufficient to occupy about 70% of forebrain binding sites (Atack et al., 2005)
# Several hedonic behaviors in rodents are sensitive to chronic stress and are restored by chronic, but not acute, administration of SSRIs, providing one means to screen for potential antidepressant compounds. First, it was determined whether L-655,708 would rapidly (<24 hrs) restore normal hedonic behavior following chronic restraint stress (Watanabe et al., 1992; Lim et al., 2012), consistent with the rapid antidepressant-like actions of ketamine (Li et al., 2011). Baseline measurements were first made of social interaction and sucrose preference, and then 4-5 week old rats were subjected to ten days of CRS. […]
# [2] = test system: amnestic properties of the anesthetic etomidate; settings: 0.7 mg/kg i.p.; Martin et al (2009); cited from earlier work
# [3] = test system: rats; assay: Open field test (anxiety); settings: rat, in vivo
# Text: C1. One cohort of control rats are given a baseline open field test. One week later, half of the animals receive an injection of L-665,708 or vehicle, followed 24 hrs later by a second open field test in a new arena.
# [4] = molecular target: GABAARs containing the alpha5 subunit (Homo sapiens, UniProt P18507+P31644); settings: Atack et al., 2005; 2006; cited from earlier work
# [5] = test system: ΔFosB; assay: FosB and ΔFosB expression after injection; assay type: in vivo, rat
# Text: D3. Nestler and colleagues have shown that induction of the transcription factor ΔFosB in D1R-expressing medium spiny neurons in the NAc in response to chronic stress is an important mediator of resilience and may play a role in the antidepressant actions of fluoxetine by changing gene expression and synaptic strength (Perrotti et al., 2004; Lobo et al., 2013; Grueter et al., 2013). It is considered whether alpha5 GABA-NAM injection also affects deltaFosB expression. Control and CRS-susceptible rats receive an injection of L-665, 708. […] Tissue punches are taken from the NAc, area CA1, EC, and PFC and subjected to Western blotting for quantification of deltaFosB levels. Sections are prepared from these same regions and stained for ΔFosB in order to count immunoreactive nuclei with stereological techniques (Vialou et al., 2010). Sections through the ventral striatum are co-stained with an antibody against the D1R, since the expression of ΔFosB in these cells may be particularly important for SSRI actions (Lobo et a/., 2013). Similar to fluoxetine, in specific embodiments in stressed and unstressed animals, alpha5 GABA-NAM affects ΔFosB expression in the NAc and other brain regions, consistent with initial studies (FIG. 5).
# [6] = test system: GluA1; assay: Western blotting of GluA1 in SLM tissue of hippocampal area CA1; assay type: in vivo, rat
# Text: Western blotting. SLM tissue punches (1 mm diameter) were dissected from area CA1 in hippocampal slices and pooled (3-4 punches/sample). Membranes were probed with antibodies directed against GluA1 (Millipore Bioscience Research Reagents) and β-actin (Cell Signaling Technology). Levels of proteins are expressed as the ratio of intensity normalized to β-actin intensity, as done previously (Kallarackal et al., 2013).
# SLM tissue was harvested from slices taken from unstressed rats, rats subjected to ten days of CRS and given a vehicle injection 24 hrs earlier, and rats subjected to ten days of CRS and given an injection of L-655,708 24 hrs earlier (0.7 mg/kg, i.p.). These were the same rats used for FIG. 6.
# [7] = test system: unstressed rats; assay: Sucrose preference and social interaction tests in unstressed rats; assay type: in vivo, rat; settings: 24 hrs after injection
# Protocol: as §1
# Social interaction test (SIT). As described previously (Berton et al., 2006), rats were placed in a plastic enclosure (82×82 cm) with a 5×5 grid of squares (16.4×16.4 cm) visible underneath the clear plastic flooring. A small translucent perforated plastic box (20×16 cm) was placed against the center of one wall of the arena. […]
# Each test consisted of a “target-absent” trial followed by a “target-present” trial. During testing, an individual test rat was placed in the center of the arena and, after 30s of adaptation, the rat's movements were recorded with the video camera for 2.5 minutes. […]
# Results were quantified as the percentage of time spent in the “interaction zone” (the five grid squares immediately surrounding the plastic cage) as measured for both the “target-absent” and “target-present” trials. […]
# GABAARs containing the alpha5 subunit, sequence (P31644 32-462): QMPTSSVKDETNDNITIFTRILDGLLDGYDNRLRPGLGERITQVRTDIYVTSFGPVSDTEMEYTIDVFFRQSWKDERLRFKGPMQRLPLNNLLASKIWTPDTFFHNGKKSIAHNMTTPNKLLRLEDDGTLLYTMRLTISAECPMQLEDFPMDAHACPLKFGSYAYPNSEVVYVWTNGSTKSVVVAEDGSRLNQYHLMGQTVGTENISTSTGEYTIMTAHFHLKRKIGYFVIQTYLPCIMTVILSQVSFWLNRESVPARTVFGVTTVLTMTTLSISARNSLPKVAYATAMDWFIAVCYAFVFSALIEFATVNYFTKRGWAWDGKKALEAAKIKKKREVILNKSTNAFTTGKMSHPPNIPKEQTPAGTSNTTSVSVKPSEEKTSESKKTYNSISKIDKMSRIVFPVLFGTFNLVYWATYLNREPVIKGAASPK
# GABAARs containing the alpha5 subunit, sequence (P18507 40-475): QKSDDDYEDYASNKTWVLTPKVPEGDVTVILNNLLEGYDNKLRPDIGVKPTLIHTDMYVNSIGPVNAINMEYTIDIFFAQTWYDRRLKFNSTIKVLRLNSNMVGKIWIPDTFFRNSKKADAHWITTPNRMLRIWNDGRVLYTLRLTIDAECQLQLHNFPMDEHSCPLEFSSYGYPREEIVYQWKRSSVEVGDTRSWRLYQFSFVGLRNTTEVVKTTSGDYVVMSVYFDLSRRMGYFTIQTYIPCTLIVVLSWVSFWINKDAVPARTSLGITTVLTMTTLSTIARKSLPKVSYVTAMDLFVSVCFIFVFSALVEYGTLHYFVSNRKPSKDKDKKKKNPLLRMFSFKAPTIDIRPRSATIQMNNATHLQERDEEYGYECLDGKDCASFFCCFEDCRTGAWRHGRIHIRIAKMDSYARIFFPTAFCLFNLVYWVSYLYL
# GABAARs containing the alpha5 subunit, sequence (P28472 26-473 partner): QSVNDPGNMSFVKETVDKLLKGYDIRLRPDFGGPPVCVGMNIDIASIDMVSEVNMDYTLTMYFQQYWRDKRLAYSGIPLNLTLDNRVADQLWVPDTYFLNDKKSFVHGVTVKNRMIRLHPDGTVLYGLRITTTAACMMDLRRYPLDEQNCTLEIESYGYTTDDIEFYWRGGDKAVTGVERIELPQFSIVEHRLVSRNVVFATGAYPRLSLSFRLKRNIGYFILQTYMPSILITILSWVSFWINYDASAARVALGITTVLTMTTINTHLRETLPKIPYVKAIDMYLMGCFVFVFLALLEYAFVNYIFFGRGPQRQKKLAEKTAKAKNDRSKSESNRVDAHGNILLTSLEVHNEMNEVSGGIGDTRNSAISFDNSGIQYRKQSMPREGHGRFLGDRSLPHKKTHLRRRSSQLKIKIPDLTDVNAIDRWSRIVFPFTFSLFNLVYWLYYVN
smiles,measurement,setting,value
"CCOC(=O)c1ncn2c1[C@@H]1CCCN1C(=O)c1cc(OC)ccc1-2 [L-655,708, ethyl (13aS)-7-methoxy-9-oxo-11, 12,13,13 a-terahydro-9H-imidazo[1,5-a]pyrrolo[2,1-c] [1,4]benzodiazepine-1-carboxylate]",sucrose preference,[1],not different from their pre-stress baseline
same,effect on amnestic properties of etomidate,[2],reverse the amnestic properties
same,anxiety in the open field test,[3],no evidence of increased anxiety
same,selectivity for GABAARs containing the alpha5 subunit,[4],10-100 fold
same,expression of FosB and ΔFosB,[5]; 24 hrs after injection,No changes were apparent
same,expression of FosB and ΔFosB in the NAc,"[5]; unstressed animals, one hour after injection",increase
same,phosphorylation of S831 of GluA1 in SLM,"[6]; CRS rats, 24 hours after injection",increased
same,GluA1 protein level in SLM (normalized to β-actin),"[6]; CRS rats, L-655,708 24 hrs earlier",not significantly different than levels in unstressed controls; also recorded: increased
same,phosphorylation of S831 and total GluA1 expression in SLM,"[6]; unstressed animals, 24 hours after injection",no effect
same,social interaction,[7],no change
same,sucrose preference,[7],no change
